According to US20260263431A1, “ARYL HYDROCARBON RECEPTOR AGONIST PRODRUGS AND METHODS OF USE THEREOF” (Allianthera (Suzhou) Biopharmaceutical Co., Ltd., priority 2022, published 2026):

How the values were obtained:
[1] = Caco-2 permeability assay (AB); format: in vitro ADME; conditions: human, apical to basolateral
Procedure: (§1) Compounds were tested under typical Caco-2 and S9 assay conditions.

S9 stability assay = format: in vitro ADME; conditions: read-out: mouse S9 Clint
Procedure: as §1

[2] = Stability in BHI broth (vehicle stability control); format: in vitro ADME; conditions: 20 μM
[3] = In vitro anaerobic metabolism in mouse fecal homogenate; format: in vitro ADME; conditions: 20 μM, anaerobic 37° C.
Procedure: (§2) The ability of the compounds of Formula (I) to release the active compound in the small or large intestine is assessed by introducing representative compounds of the disclosure to the contents of either a rodent small intestine or a rodent large intestine for up to 24 hours at 37° C. The amount of active drug released after the incubation period is determined by LC-MS/MS. Additional studies are conducted by incubating representative compounds of the disclosure with human fecal samples.
(§3) In Vitro Anaerobic Metabolism in Fecal Homogenates (vs. Control)
(§4) Compound 1 was dissolved in PBS (pH 7.4) to provide a 200 μM working solution. An aliquot of 50 μL volume was spiked to each 450 μL fecal homogenate incubation sample to provide an incubation concentration at 20 μM.
(§5) An estimated 1 g to 2 g wet weight of fecal material from healthy mice and rats (separately) was immediately collected in a pre-labelled 50 mL EP tube and stored at ambient room temperature. Based on the weight of each fecal material, a dilution with 0.01 M isotonic phosphate buffer (pH 7.0) is performed to provide a 12.5× diluted fecal homogenate. All fecal materials were stored at room temperature before being used in fecal homogenate preparation.
(§6) Under anaerobic conditions, each of the fecal specimen materials collected in 0.01 M isotonic phosphate buffer (pH 7.0) was homogenized by shaking and mixing with a stirrer. Each lot of the fecal homogenate material was added with an appropriate volume of 0.01 M isotonic phosphate buffer (pH 7.0) to provide fecal homogenate at 12.5× dilution. Under anaerobic condition in a nitrogen glove box purged with high purity nitrogen to ensure <1% oxygen level, the fecal homogenate was transferred to a clean container and diluted with 3 volumes of Brain Heart Infusion Broth (BHI) to provide a 50× diluted fecal homogenate. The diluted fecal homogenate matrix at an aliquot of 0.45 mL was dispensed into 2-mL EP tube, freshly prepared Compound 1 working solutions were then spiked to the fecal homogenate sample vials for incubation over the metabolic stability time-course.
(§7) Compound 1 was incubated at a target concentration of 20 μM in each fecal homogenate over a time course of 0, 1, 2, 4, 6 and 24 hours. Metabolic incubation at each time point was performed in triplicate. Incubation of the samples was performed in 2-mL EP tube. Into each pre-labeled sample vial, 50 μL of a Compound 1 working solution was accurately dispensed followed by the addition of the 0.45 mL pre-incubated fecal homogenate. Sample were capped, vortex mixed and incubated under an anaerobic environment at 37° C. At the end of each incubation time point, 1.0 mL of IS (Internal Standard) as a stop solvent was added to each sample with vortex mixed to stop the metabolic reactions. Samples at the 0-hour time point were pre-treated with the addition of IS stop solvent prior to the spiking of fecal homogenate and Compound 1. All samples were stored at −80° C. prior to LC-MS/MS assay. Samples are analyzed by LC-MS/MS. The MS detection is performed using a Sciex API 5500+ instrument. Each compound is analyzed by reverse phase HPLC.

[4] = In vitro anaerobic metabolism in rat fecal homogenate; format: in vitro ADME; conditions: 20 μM, anaerobic 37° C.
Procedure: as §2, §3, §4, §5, §6, §7

AHR = molecular target: T1, AHR (Homo sapiens, UniProt P35869); experiment: AHR activity of the metabolite (reEC50 / abEC50); format: cell-based; conditions: relative to tapinarof at 1 μM
T1 sequence (P35869 11-848): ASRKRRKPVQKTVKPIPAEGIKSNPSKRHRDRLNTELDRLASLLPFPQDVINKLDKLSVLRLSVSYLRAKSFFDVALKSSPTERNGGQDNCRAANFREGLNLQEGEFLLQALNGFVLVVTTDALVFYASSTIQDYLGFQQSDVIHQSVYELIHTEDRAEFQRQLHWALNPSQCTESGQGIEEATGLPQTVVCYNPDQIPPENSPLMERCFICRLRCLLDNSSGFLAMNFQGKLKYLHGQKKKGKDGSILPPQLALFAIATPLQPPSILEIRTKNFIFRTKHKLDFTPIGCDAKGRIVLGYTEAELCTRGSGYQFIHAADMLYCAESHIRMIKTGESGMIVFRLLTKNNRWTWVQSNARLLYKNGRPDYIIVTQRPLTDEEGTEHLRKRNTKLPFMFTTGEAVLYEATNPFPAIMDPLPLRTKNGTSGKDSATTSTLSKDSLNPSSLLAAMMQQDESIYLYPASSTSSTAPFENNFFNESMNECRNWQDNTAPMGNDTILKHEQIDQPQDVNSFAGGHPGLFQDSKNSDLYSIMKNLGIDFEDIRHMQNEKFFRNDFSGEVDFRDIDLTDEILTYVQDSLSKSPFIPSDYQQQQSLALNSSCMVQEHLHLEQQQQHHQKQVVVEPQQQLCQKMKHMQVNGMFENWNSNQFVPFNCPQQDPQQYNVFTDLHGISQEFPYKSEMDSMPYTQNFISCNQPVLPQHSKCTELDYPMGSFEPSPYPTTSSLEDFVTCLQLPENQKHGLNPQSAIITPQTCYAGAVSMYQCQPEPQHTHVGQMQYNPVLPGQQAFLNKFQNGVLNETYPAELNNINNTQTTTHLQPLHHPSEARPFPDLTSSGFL
Procedure: The AHR activity of the metabolite is measured as AHR reEC50 (as % activation to tapinarof at 1 μM)—of 166.1 nM (69.5%) and a AHR abEC50 of 241.5 nM.

Row | SMILES | Papp A→B [1] [×10⁻⁶ cm/s] | intrinsic clearance in mouse S9 (S9 stability assay) [µL/min/mg] | further results
1 | CC(C)c1c(O)cc(-c2cc(F)c3cnc(N)nc3c2)cc1OS(=O)(=O)O [Compound 7, [5-(2-amino-5-fluoroquinazolin-7-yl)-3-hydroxy-2-isopropylphenyl]oxidanesulfonic acid] | 0.37 | – | –
2 | CC(C)c1ncc(/C=C/c2ccc(F)cc2)cc1OS(=O)(=O)O [Compound 6, {5-[(E)-2-(4-fluorophenyl)ethenyl]-2-isopropylpyridin-3-yl}oxidanesulfonic acid] | 0.62 | 1.26 | –
3 | Cc1ccnc2cc(-c3cc(F)c(C(C)C)c(OP(=O)(O)O)c3)ccc12 [Compound 11, 3-fluoro-2-isopropyl-5-(4-methylquinolin-7-yl)phenyl dihydrogen phosphate] | – | 0.68 | –
4 | CC(C)c1c(OP(=O)(O)O)cc(-c2cnc3ccccc3c2)cc1OP(=O)(O)O [Compound 4, 2-isopropyl-3-(phosphonooxy)-5-(quinolin-3-yl)phenoxyphosphonic acid] | < 0.2 | 3.43 | –
5 | CC(C)c1ncc(/C=C/c2ccccc2)cc1OS(=O)(=O)O [Compound 1, {2-isopropyl-5-[(E)-2-phenylethenyl]pyridin-3-yl}oxidanesulfonic acid] | 0.44 | 4.91 | Compound 1 Conc. Average ([2]; 0 hr): 23.2 µM; Compound 1 Conc. Average ([2]; 24 hr): 21.9 µM; Compound 1 Conc. Average ([3]; 0 hr): 23.7 µM; Compound 1 Conc. Average ([3]; 1 hr): 21.8 µM; Compound 1 Conc. Average ([3]; 2 hr): 21.6 µM; Compound 1 Conc. Average ([3]; 4 hr): 19.2 µM; Compound 1 Conc. Average ([3]; 6 hr): 14.75 µM; Compound 1 Conc. Average ([3]; 24 hr): 0.0738 µM; Compound 1 Conc. Average ([4]; 0 hr): 25.05 µM; Compound 1 Conc. Average ([4]; 1 hr): 21.3 µM; Compound 1 Conc. Average ([4]; 2 hr): 20.55 µM; Compound 1 Conc. Average ([4]; 4 hr): 14.2 µM; Compound 1 Conc. Average ([4]; 6 hr): 3.02 µM; Compound 1 Conc. Average ([4]; 24 hr): 0.0657 µM
6 | CC(C)c1ncc(/C=C/c2ccccc2F)cc1OS(=O)(=O)O [Compound 5, {5-[(E)-2-(2-fluorophenyl)ethenyl]-2-isopropylpyridin-3-yl}oxidanesulfonic acid] | 0.44 | 2.64 | –
7 | CC(C)c1ncc(/C=C/c2ccccc2)cc1O [metabolite] | – | – | % activation to tapinarof at 1 μM (AHR): 69.5%
8 | CC(C)c1c(O)cc(-c2cnc3ccccc3c2)cc1OS(=O)(=O)O [Compound 3, [3-hydroxy-2-isopropyl-5-(quinolin-3-yl)phenyl]oxidanesulfonic acid] | 0.29 | – | –
9 | CCCc1c(F)cc(/C=C/c2ccccc2)cc1OS(=O)(=O)O [Compound 9, {3-fluoro-5-[(E)-2-phenylethenyl]-2-propylphenyl}oxidanesulfonic acid] | 0.29 | 0.7 | –
10 | CC(C)c1c(O)cc(-c2cc3ccccc3cn2)cc1OS(=O)(=O)O [Compound 2, [3-hydroxy-2-isopropyl-5-(isoquinolin-3-yl)phenyl]oxidanesulfonic acid] | – | 1.18 | –
11 | CC(C)c1c(F)cc(/C=C/c2ccccc2)cc1OS(=O)(=O)O [Compound 10, {3-fluoro-2-isopropyl-5-[(E)-2-phenylethenyl]phenyl}oxidanesulfonic acid] | 0.25 | 0.47 | –
12 | CC(C)c1c(O)cc(-c2ccc3cc(F)ccc3n2)cc1OS(=O)(=O)O [Compound 8, [5-(6-fluoroquinolin-2-yl)-3-hydroxy-2-isopropylphenyl]oxidanesulfonic acid] | – | 0.02 | –
